According to ChEMBL document CHEMBL5634182, “Antifungal Pseuboyenes A-J, Bergamotene-Derived Sesquiterpenoids from a Cold-Seep-Derived Pseudallescheria boydii” (J Nat Prod, 2024):

What was measured:
Escherichia coli = assay: Antibacterial activity against Escherichia coli EMBLC-1 assessed as reduction in microbial growth by broth microdilution method; type: functional
Edwardsiella tarda = assay: Antibacterial activity against Edwardsiella tarda QDIO-2 assessed as reduction in microbial growth by broth microdilution method; type: functional
Micrococcus luteus = assay: Antibacterial activity against Micrococcus luteus QDIO-3 assessed as reduction in microbial growth by broth microdilution method; type: functional
Pseudomonas aeruginosa = assay: Antibacterial activity against Pseudomonas aeruginosa QDIO-4 assessed as reduction in microbial growth by broth microdilution method; type: functional
Vibrio anguillarum = assay: Antibacterial activity against Vibrio anguillarum QDIO-6 assessed as reduction in microbial growth by broth microdilution method; type: functional
Vibrio harveyi = assay: Antibacterial activity against Vibrio harveyi QDIO-7 assessed as reduction in microbial growth by broth microdilution method; type: functional
Vibrio vulnificus = assay: Antibacterial activity against Vibrio vulnificus QDIO-10 assessed as reduction in microbial growth by broth microdilution method; type: functional
Alternaria brassicae = assay: Antifungal activity against Alternaria brassicae QDAU-16 assessed as reduction in microbial growth by broth microdilution method; type: functional
[1] = system: Ceratobasidium cornigerum; assay: Antifungal activity against Ceratobasidium cornigerum QDAU-6 assessed as reduction in microbial growth by broth microdilution method; type: functional
Coniella diplodiella = assay: Antifungal activity against Coniothyrium diplodiella QDAU-7 assessed as reduction in microbial growth by broth microdilution method; type: functional
[2] = system: Colletotrichum gloeosporioides; assay: Antifungal activity against Colletotrichum gloeosporioides QDAU-2 assessed as reduction in microbial growth by broth microdilution method; type: functional
[3] = system: Colletotrichum gloeosporioides; assay: Antifungal activity against Colletotrichum gloeosporioides QDAU-17 assessed as reduction in microbial growth by broth microdilution method; type: functional
Curvularia spicifera = assay: Antifungal activity against Curvularia spicifera QDAU-18 assessed as reduction in microbial growth by broth microdilution method; type: functional
Fusarium graminearum = assay: Antifungal activity against Fusarium graminearum QDAU-4 assessed as reduction in microbial growth by broth microdilution method; type: functional
Fusarium oxysporum = assay: Antifungal activity against Fusarium oxysporum QDAU-8 assessed as reduction in microbial growth by broth microdilution method; type: functional
Fusarium proliferatum = assay: Antifungal activity against Fusarium proliferatum QDAU-19 assessed as reduction in microbial growth by broth microdilution method; type: functional
Penicillium digitatum = assay: Antifungal activity against Penicillium digitatum QDAU-14 assessed as reduction in microbial growth by broth microdilution method; type: functional
[4] = system: Botryosphaeria berengeriana; assay: Antifungal activity against Physalospora piricola QDAU-15 assessed as reduction in microbial growth by broth microdilution method; type: functional
MKN-45 = assay: Cytotoxicity against human MKN-45 cells assessed as reduction in cell viability at 20 uM; type: functional, cell-based
A549 = assay: Cytotoxicity against human A549 cells assessed as reduction in cell viability at 20 uM; type: functional, cell-based
HCT-116 = assay: Cytotoxicity against human HCT-116 cells assessed as reduction in cell viability at 20 uM; type: functional, cell-based
HeLa = assay: Cytotoxicity against human HeLa cells assessed as reduction in cell viability at 20 uM; type: functional, cell-based
K562 = assay: Cytotoxicity against human K562 cells assessed as reduction in cell viability at 20 uM; type: functional, cell-based
786-0 = assay: Cytotoxicity against human 786-0 cells assessed as reduction in cell viability at 20 uM; type: functional, cell-based
TE-1 = assay: Cytotoxicity against human TE-1 cells assessed as reduction in cell viability at 20 uM; type: functional, cell-based
5637 = assay: Cytotoxicity against human 5637 cells assessed as reduction in cell viability at 20 uM; type: functional, cell-based
GBC-SD = assay: Cytotoxicity against human GBC-SD cells assessed as reduction in cell viability at 20 uM; type: functional, cell-based
L02 = assay: Cytotoxicity against human L02 cells assessed as reduction in cell viability at 20 uM; type: functional, cell-based
MCF7 = assay: Cytotoxicity against human MCF7 cells assessed as reduction in cell viability at 20 uM; type: functional, cell-based
HepG2 = assay: Cytotoxicity against human HepG2 cells assessed as reduction in cell viability at 20 uM; type: functional, cell-based
SF-126 = assay: Cytotoxicity against human SF-126 cells assessed as reduction in cell viability at 20 uM; type: functional, cell-based
DU-145 = assay: Cytotoxicity against human DU-145 cells assessed as reduction in cell viability at 20 uM; type: functional, cell-based
CAL-62 = assay: Cytotoxicity against human CAL-62 cells assessed as reduction in cell viability at 20 uM; type: functional, cell-based
PaTu 8988t = assay: Cytotoxicity against human PaTu 8988t cells assessed as reduction in cell viability at 20 uM; type: functional, cell-based
HOS = assay: Cytotoxicity against human HOS cells assessed as reduction in cell viability at 20 uM; type: functional, cell-based
A-375 = assay: Cytotoxicity against human A-375 cells assessed as reduction in cell viability at 20 uM; type: functional, cell-based
A673 = assay: Cytotoxicity against human A673 cells assessed as reduction in cell viability at 20 uM; type: functional, cell-based
HEK-293T = assay: Cytotoxicity against human HEK293T cells assessed as reduction in cell viability at 20 uM; type: toxicity, cell-based

SMILES | MIC (Escherichia coli) | MIC (Edwardsiella tarda) | MIC (Micrococcus luteus) | MIC (Pseudomonas aeruginosa) | MIC (Vibrio anguillarum) | MIC (Vibrio harveyi) | MIC (Vibrio vulnificus) | MIC (Alternaria brassicae) | MIC [1] | MIC (Coniella diplodiella) | MIC [2] | MIC [3] | MIC (Curvularia spicifera) | MIC (Fusarium graminearum) | MIC (Fusarium oxysporum) | MIC (Fusarium proliferatum) | MIC (Penicillium digitatum) | MIC [4] | other results
O=C(N[C@H](CO)[C@H](O)c1ccc([N+](=O)[O-])cc1)C(Cl)Cl [CHLORAMPHENICOL] | 0.5 µg/mL | 2 µg/mL | 0.5 µg/mL | 2 µg/mL | 0.5 µg/mL | 0.5 µg/mL | 2 µg/mL |  |  |  |  |  |  |  |  |  |  |  | 
C=C1CC[C@@]2(O)C[C@@H]1[C@]2(C)CC(=O)C=C(C)C | > 64 µg/mL | > 64 µg/mL | 16 µg/mL | 32 µg/mL | > 64 µg/mL | 16 µg/mL | 8 µg/mL | 1 µg/mL | 4 µg/mL | 4 µg/mL | 8 µg/mL | 8 µg/mL | 2 µg/mL | 4 µg/mL | 8 µg/mL | 8 µg/mL | 4 µg/mL | 16 µg/mL | 
C=C1CC[C@H](O)C[C@@H]1[C@H](C)C(=O)[C@H](O)C=C(C)C | 8 µg/mL | > 64 µg/mL | > 64 µg/mL | > 64 µg/mL | 32 µg/mL | > 64 µg/mL | > 64 µg/mL |  |  |  |  |  |  |  |  |  |  |  | Activity (MKN-45): Not toxic; Activity (A549): Not toxic; Activity (HCT-116): Not toxic; Activity (HeLa): Not toxic; Activity (K562): Not toxic; Activity (786-0): Not toxic; Activity (TE-1): Not toxic; Activity 5637: Not toxic; Activity (GBC-SD): Not toxic; Activity (L02): Not toxic; Activity (MCF7): Not toxic; Activity (HepG2): Not toxic; Activity (SF-126): Not toxic; Activity (DU-145): Not toxic; Activity (CAL-62): Not toxic; Activity (PaTu 8988t): Not toxic; Activity (HOS): Not toxic; Activity (A-375): Not toxic; Activity (A673): Not toxic; Activity (HEK-293T): Non-Toxic
C=C1CC[C@@]2(O)C[C@@H]1[C@]2(C)[C@H](OC(C)=O)C(=O)C=C(C)C |  |  |  |  |  |  |  | 4 µg/mL | 8 µg/mL | 4 µg/mL | 4 µg/mL | 16 µg/mL | 1 µg/mL | 2 µg/mL | 16 µg/mL | 2 µg/mL | 8 µg/mL | 32 µg/mL | 
C=C1[C@H](O)C[C@H]2C[C@@H]1[C@](C)([C@H](O)CC=C(C)C)O2 |  |  |  |  |  |  |  | 8 µg/mL | 4 µg/mL | 4 µg/mL | 4 µg/mL | 2 µg/mL | 8 µg/mL | 2 µg/mL | 2 µg/mL | 16 µg/mL | 8 µg/mL | 8 µg/mL | 
C=C1CC[C@H](O)C[C@@H]1[C@@](C)(O)C(=O)/C=C/C(C)(C)O | > 64 µg/mL | 16 µg/mL | > 64 µg/mL | > 64 µg/mL | > 64 µg/mL | > 64 µg/mL | 64 µg/mL |  |  |  |  |  |  |  |  |  |  |  | 
